Legend:
Set-up in all cases: key: 0: normal development; 1: Less damaged; 2: Slightly damaged; 3: Moderately damaged; 4: Severely damaged; 5: All killed
young rice plant = assay: Herbicidal test for paddy field; type: in vivo; conditions: paddy field pot, 500 g/ha dropwise at 1.5 leaf stage of barnyardgrass, 3 weeks, rank vs non-treated
Outline: (§1)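 Flooded pots (3 cm water) of alluvial soil were sown with seeds or tubers, and wettable-powder formulations in 0.05% surfactant water were dripped in at 500 g/ha at the 1.5-leaf stage of barnyardgrass. Plants were kept 3 weeks in a glasshouse at an average 25° C. Damage was scored 0 (normal) to 5 (all killed) against untreated controls.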

barnyardgrass [1] = assay: Herbicidal test for paddy field; type: in vivo, Echinochloa crusgalli; conditions: paddy field pot, 500 g/ha dropwise at 1.5 leaf stage of barnyardgrass, 3 weeks, rank vs non-treated
Outline: as §1

monochoria = assay: Herbicidal test for paddy field; type: in vivo, Monochoria vaginalis; conditions: paddy field pot, 500 g/ha dropwise at 1.5 leaf stage of barnyardgrass, 3 weeks, rank vs non-treated
Outline: as §1

corn [2] = assay: Soil treatment test for upland field; type: in vivo; conditions: 500 g/ha, glass house 25° C., 3 weeks
Outline: (§2)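 Compounds were formulated as wettable powders and applied pre-emergence to the surface of freshly sown alluvial soil at 500 g/ha. After three weeks in a glass house averaging 25° C, damage was rated from 0 (normal development) to 5 (all killed).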

cotton = assay: Soil treatment test for upland field; type: in vivo; conditions: 500 g/ha, glass house 25° C., 3 weeks
Outline: as §2

wheat [3] = assay: Soil treatment test for upland field; type: in vivo; conditions: 500 g/ha, glass house 25° C., 3 weeks
Outline: as §2

barnyardgrass [4] = assay: Soil treatment test for upland field; type: in vivo, Echinochloa crusgalli; conditions: 500 g/ha, glass house 25° C., 3 weeks
Outline: as §2

green foxtail = assay: Soil treatment test for upland field; type: in vivo, Setaria viridis; conditions: 500 g/ha, glass house 25° C., 3 weeks
Outline: as §2

common lambsquartes [5] = assay: Soil treatment test for upland field; type: in vivo, Chenopodium album; conditions: 500 g/ha, glass house 25° C., 3 weeks
Outline: as §2

livid amaranth [6] = assay: Soil treatment test for upland field; type: in vivo, Amaranthus lividus; conditions: 500 g/ha, glass house 25° C., 3 weeks
Outline: as §2

corn [7] = assay: Foliar spread test for upland field; type: in vivo; conditions: foliar spray 500 ppm, 3 weeks, rank vs non-treated
Outline: (§3)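 Crops and weeds grown about 2 weeks in volcanic ash soil in a glasshouse, then sprayed with wettable-powder formulations diluted to 500 ppm in water with 0.5% surfactant. After 3 weeks at 25 °C, injury scored visually 0 (normal) to 5 (all killed).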

solgum = assay: Foliar spread test for upland field; type: in vivo; conditions: foliar spray 500 ppm, 3 weeks, rank vs non-treated
Outline: as §3

sugar beat = assay: Foliar spread test for upland field; type: in vivo; conditions: foliar spray 500 ppm, 3 weeks, rank vs non-treated
Outline: as §3

wheat [8] = assay: Foliar spread test for upland field; type: in vivo; conditions: foliar spray 500 ppm, 3 weeks, rank vs non-treated
Outline: as §3

common lambsquartes [9] = assay: Foliar spread test for upland field; type: in vivo, Chenopodium album; conditions: foliar spray 500 ppm, 3 weeks, rank vs non-treated
Outline: as §3

livid amaranth [10] = assay: Foliar spread test for upland field; type: in vivo, Amaranthus lividus; conditions: foliar spray 500 ppm, 3 weeks, rank vs non-treated
Outline: as §3

velvetleaf [11] = assay: Foliar spread test for upland field; type: in vivo, Abutilon theophrasti; conditions: foliar spray 500 ppm, 3 weeks, rank vs non-treated
Outline: as §3

velvetleaf [12] = assay: Soil treatment test for upland field; type: in vivo, Abutilon theophrasti; conditions: 500 g/ha, glass house 25° C., 3 weeks
Outline: as §2

blackgrass = assay: Foliar spread test for upland field; type: in vivo, Alopecurus aegualis; conditions: foliar spray 500 ppm, 3 weeks, rank vs non-treated
Outline: as §3

CCC(Oc1ccc(F)c(C(F)(F)F)c1)c1nc2cc(F)ccc2o1 (stereo not drawn) [Compound 119, 1-(5-fluorobenzoxazol-2-yl)-1-(4-fluoro-3-(trifluoromethyl)phenoxy)propane]
Effect Young rice plant (young rice plant): 1 | Effect Barnyardgrass (barnyardgrass [1]): 3 | Effect Monochoria (monochoria): 4 | Effects Corn (corn [2]): 0 | Effects Cotton (cotton): 0 | Effects Wheat (wheat [3]): 0 | Effects Barnyardgrass (barnyardgrass [4]): 5 | Effects Green foxtail (green foxtail): 5 | Effects Common lambsquarters (common lambsquartes [5]): 1 | Effects Livid amaranth (livid amaranth [6]): 5 | Effects Corn (corn [7]): 2 | Effects Solgum (solgum): 1 | Effects Sugar beat (sugar beat): 3 | Effects Wheat (wheat [8]): 1 | Effects Common lambsquarters (common lambsquartes [9]): 4 | Effects Livid amaranth (livid amaranth [10]): 4 | Effects Velvetleaf (velvetleaf [11]): 2

CC(Oc1ccc(F)c(C(F)(F)F)c1)c1nc2cc(Cl)ccc2o1 (stereo not drawn) [Compound 137]
Effect Young rice plant (young rice plant): 1 | Effect Barnyardgrass (barnyardgrass [1]): 3 | Effect Monochoria (monochoria): 3 | Effects Corn (corn [2]): 1 | Effects Cotton (cotton): 0 | Effects Wheat (wheat [3]): 1 | Effects Barnyardgrass (barnyardgrass [4]): 3 | Effects Green foxtail (green foxtail): 5 | Effects Common lambsquarters (common lambsquartes [5]): 2 | Effects Livid amaranth (livid amaranth [6]): 5 | Effects Corn (corn [7]): 2 | Effects Solgum (solgum): 1 | Effects Sugar beat (sugar beat): 5 | Effects Wheat (wheat [8]): 1 | Effects Livid amaranth (livid amaranth [10]): 4 | Effects Velvetleaf (velvetleaf [11]): 1

CCCC(Oc1ccc(F)c(C(F)(F)F)c1)c1nc2cc(Cl)ccc2o1 (stereo not drawn) [Compound 141]
Effect Young rice plant (young rice plant): 1 | Effect Barnyardgrass (barnyardgrass [1]): 5 | Effect Monochoria (monochoria): 5 | Effects Corn (corn [2]): 1 | Effects Wheat (wheat [3]): 0 | Effects Barnyardgrass (barnyardgrass [4]): 3 | Effects Green foxtail (green foxtail): 5 | Effects Common lambsquarters (common lambsquartes [5]): 5 | Effects Livid amaranth (livid amaranth [6]): 5 | Effects Velvetleaf (velvetleaf [12]): 5 | Effects Corn (corn [7]): 2 | Effects Solgum (solgum): 1 | Effects Wheat (wheat [8]): 2 | Effects Blackgrass (blackgrass): 4 | Effects Common lambsquarters (common lambsquartes [9]): 4 | Effects Livid amaranth (livid amaranth [10]): 4 | Effects Velvetleaf (velvetleaf [11]): 4

CCC(Oc1cccc(C(F)(F)F)c1)c1nc2cc(F)c(C(F)(F)F)cc2o1 (stereo not drawn) [Compound 471]
Effect Barnyardgrass (barnyardgrass [1]): 5 | Effect Monochoria (monochoria): 5 | Effects Cotton (cotton): 1 | Effects Wheat (wheat [3]): 1 | Effects Barnyardgrass (barnyardgrass [4]): 5 | Effects Green foxtail (green foxtail): 5 | Effects Common lambsquarters (common lambsquartes [5]): 5 | Effects Livid amaranth (livid amaranth [6]): 5 | Effects Velvetleaf (velvetleaf [12]): 5 | Effects Corn (corn [7]): 2 | Effects Solgum (solgum): 3 | Effects Sugar beat (sugar beat): 5 | Effects Wheat (wheat [8]): 2 | Effects Blackgrass (blackgrass): 3 | Effects Common lambsquarters (common lambsquartes [9]): 5 | Effects Livid amaranth (livid amaranth [10]): 5 | Effects Velvetleaf (velvetleaf [11]): 3

CCCC(Oc1cccc(C(F)(F)F)c1)c1nc2cc(F)c(C(F)(F)F)cc2o1 (stereo not drawn) [Compound 474]
Effect Barnyardgrass (barnyardgrass [1]): 2 | Effect Monochoria (monochoria): 5 | Effects Corn (corn [2]): 2 | Effects Cotton (cotton): 1 | Effects Wheat (wheat [3]): 1 | Effects Barnyardgrass (barnyardgrass [4]): 5 | Effects Green foxtail (green foxtail): 5 | Effects Common lambsquarters (common lambsquartes [5]): 5 | Effects Livid amaranth (livid amaranth [6]): 5 | Effects Velvetleaf (velvetleaf [12]): 5 | Effects Corn (corn [7]): 2 | Effects Solgum (solgum): 2 | Effects Sugar beat (sugar beat): 5 | Effects Wheat (wheat [8]): 2 | Effects Blackgrass (blackgrass): 2 | Effects Common lambsquarters (common lambsquartes [9]): 5 | Effects Livid amaranth (livid amaranth [10]): 5 | Effects Velvetleaf (velvetleaf [11]): 2

CCCC(Oc1ccc(F)c(C(F)(F)F)c1)c1nc2cc(F)c(Cl)cc2o1 (stereo not drawn) [Compound 494]
Effect Barnyardgrass (barnyardgrass [1]): 5 | Effect Monochoria (monochoria): 5 | Effects Corn (corn [2]): 1 | Effects Cotton (cotton): 0 | Effects Wheat (wheat [3]): 1 | Effects Barnyardgrass (barnyardgrass [4]): 4 | Effects Green foxtail (green foxtail): 5 | Effects Common lambsquarters (common lambsquartes [5]): 4 | Effects Livid amaranth (livid amaranth [6]): 5 | Effects Velvetleaf (velvetleaf [12]): 3 | Effects Corn (corn [7]): 2 | Effects Solgum (solgum): 1 | Effects Sugar beat (sugar beat): 3 | Effects Wheat (wheat [8]): 1 | Effects Common lambsquarters (common lambsquartes [9]): 4 | Effects Livid amaranth (livid amaranth [10]): 5 | Effects Velvetleaf (velvetleaf [11]): 2

CCCC(Oc1cccc(C(F)(F)F)c1)c1nc2cc(F)c(Cl)cc2o1 (stereo not drawn) [Compound 497]
Effect Young rice plant (young rice plant): 2 | Effect Barnyardgrass (barnyardgrass [1]): 4 | Effect Monochoria (monochoria): 4 | Effects Corn (corn [2]): 1 | Effects Cotton (cotton): 1 | Effects Wheat (wheat [3]): 1 | Effects Green foxtail (green foxtail): 5 | Effects Common lambsquarters (common lambsquartes [5]): 5 | Effects Livid amaranth (livid amaranth [6]): 5 | Effects Velvetleaf (velvetleaf [12]): 3 | Effects Corn (corn [7]): 2 | Effects Solgum (solgum): 1 | Effects Sugar beat (sugar beat): 5 | Effects Wheat (wheat [8]): 2 | Effects Common lambsquarters (common lambsquartes [9]): 2 | Effects Livid amaranth (livid amaranth [10]): 5 | Effects Velvetleaf (velvetleaf [11]): 3

CCC(Oc1cccc(C#N)c1)c1nc2cc(F)c(Cl)cc2o1 (stereo not drawn) [Compound 498]
Effect Young rice plant (young rice plant): 1 | Effect Barnyardgrass (barnyardgrass [1]): 3 | Effect Monochoria (monochoria): 2 | Effects Corn (corn [2]): 0 | Effects Cotton (cotton): 1 | Effects Wheat (wheat [3]): 1 | Effects Barnyardgrass (barnyardgrass [4]): 3 | Effects Green foxtail (green foxtail): 5 | Effects Common lambsquarters (common lambsquartes [5]): 5 | Effects Livid amaranth (livid amaranth [6]): 5 | Effects Velvetleaf (velvetleaf [12]): 3 | Effects Corn (corn [7]): 1 | Effects Solgum (solgum): 1 | Effects Sugar beat (sugar beat): 4 | Effects Wheat (wheat [8]): 2 | Effects Livid amaranth (livid amaranth [10]): 4 | Effects Velvetleaf (velvetleaf [11]): 2

CCC(Oc1cccc(C(F)(F)F)c1)c1nc2cc(C#N)c(Cl)cc2o1 (stereo not drawn) [Compound 529]
Effect Barnyardgrass (barnyardgrass [1]): 5 | Effect Monochoria (monochoria): 5 | Effects Corn (corn [2]): 1 | Effects Barnyardgrass (barnyardgrass [4]): 5 | Effects Green foxtail (green foxtail): 5 | Effects Common lambsquarters (common lambsquartes [5]): 5 | Effects Livid amaranth (livid amaranth [6]): 5 | Effects Velvetleaf (velvetleaf [12]): 5 | Effects Solgum (solgum): 3 | Effects Sugar beat (sugar beat): 5 | Effects Wheat (wheat [8]): 2 | Effects Blackgrass (blackgrass): 4 | Effects Common lambsquarters (common lambsquartes [9]): 5 | Effects Livid amaranth (livid amaranth [10]): 5 | Effects Velvetleaf (velvetleaf [11]): 3

CCCC(Oc1cccc(C(F)(F)F)c1)c1nc2cc(C#N)c(Cl)cc2o1 (stereo not drawn) [Compound 532]
Effect Barnyardgrass (barnyardgrass [1]): 5 | Effect Monochoria (monochoria): 5 | Effects Corn (corn [2]): 1 | Effects Cotton (cotton): 1 | Effects Wheat (wheat [3]): 2 | Effects Barnyardgrass (barnyardgrass [4]): 5 | Effects Green foxtail (green foxtail): 5 | Effects Common lambsquarters (common lambsquartes [5]): 5 | Effects Livid amaranth (livid amaranth [6]): 5 | Effects Velvetleaf (velvetleaf [12]): 5 | Effects Corn (corn [7]): 2 | Effects Solgum (solgum): 2 | Effects Sugar beat (sugar beat): 5 | Effects Blackgrass (blackgrass): 4 | Effects Common lambsquarters (common lambsquartes [9]): 5 | Effects Livid amaranth (livid amaranth [10]): 5 | Effects Velvetleaf (velvetleaf [11]): 3
